From patent US20250042894A1, “PROTEIN TYROSINE PHOSPHATASE INHIBITORS AND METHODS OF USE THEREOF” (Calico Life Sciences LLC, priority 2021, published 2025)
Like-named read-outs stand apart in the source and are kept apart here.

Key:
[1] = target: T1, His tagged PTPN2 (TC45) protein (Homo sapiens, UniProt P17706); test: Mobility Shift Assay (MSA) for PTPN2 inhibitors; type: biochemical; settings: for Thiochromane x-fold>potency biochemical: PTPN2 MSA IC50 of chromane comparator over thiochromane
T1 construct: His; made in house
T1 sequence (P17706 1-387 isoform P17706-2): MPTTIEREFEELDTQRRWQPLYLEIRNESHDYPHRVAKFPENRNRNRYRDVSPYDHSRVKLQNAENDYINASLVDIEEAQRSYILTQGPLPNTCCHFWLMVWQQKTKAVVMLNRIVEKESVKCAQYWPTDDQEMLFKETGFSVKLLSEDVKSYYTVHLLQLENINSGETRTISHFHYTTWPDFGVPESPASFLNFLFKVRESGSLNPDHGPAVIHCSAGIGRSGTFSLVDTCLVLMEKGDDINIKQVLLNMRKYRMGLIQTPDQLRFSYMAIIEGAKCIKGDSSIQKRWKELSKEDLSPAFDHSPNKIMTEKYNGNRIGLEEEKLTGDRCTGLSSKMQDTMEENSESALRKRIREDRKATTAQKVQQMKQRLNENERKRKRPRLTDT
Method in brief: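 Enzyme (0.5 nM) preincubated 10 min at RT with compound (12-point, 1:3 dilution) in 50 mM HEPES pH 7.5, 10 mM EDTA, 2 mM DTT; OG488-labelled phospho-insulin-receptor peptide substrate (2 μM) then added for 10 min. After quench, dephosphorylation measured by microfluidic mobility shift (ex 488/em 530 nm); IC50 from % inhibition.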

[2] = target: T2, His tagged full-length PTPN1 protein (Homo sapiens, UniProt P18031); test: Mobility Shift Assay (MSA) for PTPN1 inhibitors; type: biochemical; settings: enzyme 0.5 nM, substrate 2 μM, 10 minutes preincubation at room temperature
T2 construct: His; made in house
T2 sequence (P18031 1-435): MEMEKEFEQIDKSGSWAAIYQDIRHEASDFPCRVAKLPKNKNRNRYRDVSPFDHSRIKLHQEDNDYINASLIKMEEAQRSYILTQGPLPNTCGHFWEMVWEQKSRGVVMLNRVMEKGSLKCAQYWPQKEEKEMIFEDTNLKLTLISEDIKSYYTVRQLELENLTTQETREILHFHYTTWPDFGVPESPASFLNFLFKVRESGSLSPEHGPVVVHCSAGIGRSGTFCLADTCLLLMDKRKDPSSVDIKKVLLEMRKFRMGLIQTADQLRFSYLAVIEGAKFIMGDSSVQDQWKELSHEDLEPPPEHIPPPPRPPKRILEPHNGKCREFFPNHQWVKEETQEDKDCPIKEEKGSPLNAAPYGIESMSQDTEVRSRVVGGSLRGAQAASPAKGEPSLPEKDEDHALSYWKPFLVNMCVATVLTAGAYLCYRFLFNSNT
Method in brief: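 Full-length His-tagged human PTPN1 (0.5 nM) was pre-incubated 10 min at RT with compound (12-point, 1:3) in HEPES pH 7.5 buffer with EGTA, EDTA, Tween-20 and DTT. Fluorescent phospho-insulin-receptor peptide (2 μM) was then added for 10 min. After quench, dephosphorylation was measured by microfluidic mobility shift, and IC50 was taken from % inhibition.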

[3] = test system: IFNγ-induced STAT1 phosphorylation (pSTAT1) in B16F10 cells; test: B16F10 Phospho-STAT1 HTRF proximal pharmacodynamic (PD) assay; type: cell-based, murine; settings: for EC50: B16-F10; for Thiochromane x-fold>potency cellular: pSTAT1 EC50 of chromane comparator over thiochromane
Method in brief: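 Murine B16F10 melanoma cells dosed 3 h at 37 °C (10-point, 3-fold dilution from 50 μM top dose), then stimulated 10 min with recombinant mouse IFNγ (100 nM final) and stopped with 3.3 μM staurosporine for 1 h. pSTAT1 in lysates detected by HTRF (Eu cryptate/d2 antibodies, 3 h RT, 665 nm emission); EC50 from dose-response curves.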

[4] = enzyme 0.5 nM, substrate 2 μM, 10 minutes preincubation at room temperature
[5] = Table 2, 3 hours compound, then mouse IFNγ 100 nM 10 minutes, top dose 50 μM, read-out: B16F10 IFNγ Induced pSTAT1 EC50
[6] = Mus musculus, Table 3, B16F10 cells, IFNγ-induced, thiochromanes (X = S) and chromane comparators (X = O), read-out: pSTAT1 EC50

Row | SMILES | IC50 [1, 4] [nM] | IC50 [2] [nM] | EC50 [3, 5] [nM] | Thiochromane x-fold>potency biochemical ([1]; Table 3) | EC50 [3, 6] [nM] | Thiochromane x-fold>potency cellular ([3]; Table 3) | IC50 ([1]; Table 3, thiochromanes (X = S) and chromane comparators (X = O)) [nM]
1 | CCC(C)CCN[C@@H]1CSc2cc(O)c(N3CC(=O)NS3(=O)=O)c(F)c2C1 (stereo partly drawn) [Compound 108, 5-{(3S)-5-fluoro-7-hydroxy-3-[(3-methylpentyl)amino]-3,4-dihydro-2H-1-benzothiopyran-6-yl}-1λ^6,2,5-thiadiazolidine-1,1,3-trione] | < 10 | < 10 | 1760 |  |  |  | 
2 | O=C1CN(c2c(O)cc3c(c2F)C[C@H](NCCC2CC(F)(F)C2)CS3)S(=O)(=O)N1 [Compound 117, 5-[(3S)-3-{[2-(3,3-difluorocyclobutyl)ethyl]amino}-5-fluoro-7-hydroxy-3,4-dihydro-2H-1-benzothiopyran-6-yl]-1λ^6,2,5-thiadiazolidine-1,1,3-trione] | < 10 | 10 to 100 | 723 |  |  |  | 
3 | O=C1CN(c2c(O)cc3c(c2F)C[C@H](NCC2CC2)CS3)S(=O)(=O)N1 [Compound 111, 5-{(3S)-3-[(cyclopropylmethyl)amino]-5-fluoro-7-hydroxy-3,4-dihydro-2H-1-benzothiopyran-6-yl}-1λ^6,2,5-thiadiazolidine-1,1,3-trione] | 10 to 100 | 10 to 100 | 7980 |  |  |  | 
4 | O=C1CN(c2c(O)cc3c(c2F)C[C@H](NCC2CCOCC2)CS3)S(=O)(=O)N1 [Compound 110, 5-[(3S)-5-fluoro-7-hydroxy-3-{[(oxan-4-yl)methyl]amino}-3,4-dihydro-2H-1-benzothiopyran-6-yl]-1λ^6,2,5-thiadiazolidine-1,1,3-trione] | 10 to 100 | 10 to 100 | 6990 |  |  |  | 
5 | O=C1CN(c2c(O)cc3c(c2F)C[C@H](NCCC2CCOC2)CS3)S(=O)(=O)N1 (stereo partly drawn) [Compound 114, 5-[(3S)-5-fluoro-7-hydroxy-3-{[2-(oxolan-3-yl)ethyl]amino}-3,4-dihydro-2H-1-benzothiopyran-6-yl]-1λ^6,2,5-thiadiazolidine-1,1,3-trione] | < 10 | 10 to 100 | 1780 | 6.0 | 1780 | 12.7 | 
6 | O=C1CN(c2c(O)cc3c(c2F)C[C@H](NCCC2CCCC2)CS3)S(=O)(=O)N1 [Compound 120, 5-{(3S)-3-[(2-cyclopentylethyl)amino]-5-fluoro-7-hydroxy-3,4-dihydro-2H-1-benzothiopyran-6-yl}-1λ^6,2,5-thiadiazolidine-1,1,3-trione] | < 10 | < 10 | 1010 |  |  |  | 
7 | O=C1CN(c2c(O)cc3c(c2F)C[C@H](NCCCC(F)F)CS3)S(=O)(=O)N1 [Compound 100, 5-{(3S)-3-[(4,4-difluorobutyl)amino]-5-fluoro-7-hydroxy-3,4-dihydro-2H-1-benzothiopyran-6-yl}-1λ^6,2,5-thiadiazolidine-1,1,3-trione] | < 10 | < 10 | 164 | 3.4 |  |  | 2
8 | O=C1CN(c2c(O)cc3c(c2F)C[C@H](NCC2C4CCCC42)CS3)S(=O)(=O)N1 (mixture of isomers) [Compound 138, 5-[(3S)-3-({[(1RS,5SR)-bicyclo[3.1.0]hexan-6-yl]methyl}amino)-5-fluoro-7-hydroxy-3,4-dihydro-2H-1-benzothiopyran-6-yl]-1λ^6,2,5-thiadiazolidine-1,1,3-trione] | 10 to 100 | 10 to 100 | 1480 | 2.0 | 1480 | >33.8 | 
9 | CC(C)=CCN[C@@H]1CSc2cc(O)c(N3CC(=O)NS3(=O)=O)c(F)c2C1 [Compound 122, 5-{(3S)-5-fluoro-7-hydroxy-3-[(3-methylbut-2-en-1-yl)amino]-3,4-dihydro-2H-1-benzothiopyran-6-yl}-1λ^6,2,5-thiadiazolidine-1,1,3-trione] | 10 to 100 | 10 to 100 | 6390 |  |  |  | 
10 | O=C1CN(c2c(O)cc3c(c2F)C[C@H](NCCC2CCOCC2)CS3)S(=O)(=O)N1 [Compound 109, 5-[(3S)-5-fluoro-7-hydroxy-3-{[2-(oxan-4-yl)ethyl]amino}-3,4-dihydro-2H-1-benzothiopyran-6-yl]-1λ^6,2,5-thiadiazolidine-1,1,3-trione] | < 10 | 10 to 100 | 6030 | 2.0 | 6030 | 5.3 | 
11 | CC1(CN[C@@H]2CSc3cc(O)c(N4CC(=O)NS4(=O)=O)c(F)c3C2)COC1 [Compound 127, 5-[(3S)-5-fluoro-7-hydroxy-3-{[(3-methyloxetan-3-yl)methyl]amino}-3,4-dihydro-2H-1-benzothiopyran-6-yl]-1λ^6,2,5-thiadiazolidine-1,1,3-trione] | 10 to 100 | 10 to 100 | 8970 |  |  |  | 
12 | CC(F)(F)CCCN[C@@H]1CSc2cc(O)c(N3CC(=O)NS3(=O)=O)c(F)c2C1 [Compound 129, 5-{(3S)-3-[(4,4-difluoropentyl)amino]-5-fluoro-7-hydroxy-3,4-dihydro-2H-1-benzothiopyran-6-yl}-1λ^6,2,5-thiadiazolidine-1,1,3-trione] | < 10 | < 10 | 589 |  |  |  | 
13 | CCCN[C@@H]1CSc2cc(O)c(N3CC(=O)NS3(=O)=O)c(F)c2C1 [Compound 107, 5-[(3S)-5-fluoro-7-hydroxy-3-(propylamino)-3,4-dihydro-2H-1-benzothiopyran-6-yl]-1λ^6,2,5-thiadiazolidine-1,1,3-trione] | 10 to 100 | 10 to 100 | 3960 |  |  |  | 
14 | COCCCN[C@@H]1CSc2cc(O)c(N3CC(=O)NS3(=O)=O)c(F)c2C1 [Compound 130, 5-{(3S)-5-fluoro-7-hydroxy-3-[(3-methoxypropyl)amino]-3,4-dihydro-2H-1-benzothiopyran-6-yl}-1λ^6,2,5-thiadiazolidine-1,1,3-trione] | 10 to 100 | 10 to 100 | 4110 |  |  |  | 
15 | CC(C)(C)OC(=O)N1CCC(CN[C@@H]2CSc3cc(O)c(N4CC(=O)NS4(=O)=O)c(F)c3C2)CC1 [Compound 141, tert-butyl 4-({[(3S)-5-fluoro-7-hydroxy-6-(1,1,4-trioxo-1λ^6,2,5-thiadiazolidin-2-yl)-3,4-dihydro-2H-1-benzothiopyran-3-yl]amino}methyl)piperidine-1-carboxylate] | 10 to 100 | 10 to 100 | 6970 | 1.0 | 6970 | >7.2 | 
16 | O=C1CN(c2c(O)cc3c(c2F)C[C@H](NCc2ccccc2)CS3)S(=O)(=O)N1 [Compound 121, 5-[(3S)-3-(benzylamino)-5-fluoro-7-hydroxy-3,4-dihydro-2H-1-benzothiopyran-6-yl]-1λ^6,2,5-thiadiazolidine-1,1,3-trione] | 10 to 100 | 10 to 100 | 8150 |  |  |  | 
